Here are results for 26 molecules from US20140378513A1, “USE OF FUNGICIDES IN LIQUID SYSTEMS” (priority 2011, published 2014).

For series [1], the system named is Pest in infected Scenedesmus dimorphus culture. The experiment in a line: Fungicide efficacy on pest control in infected microalgae culture. The series is classed as cell-based. Particulars: for Rating: rating scale of 0 to 3 by percent efficacy; for positive efficacy in a first trial confirmed in a second trial: Table 6; for Scenedesmus dimorphus Efficacy confirmation: second trial. An excerpt: Failure to treat an infected culture results in the collapse and loss of the microalgae culture. […] Test fungicides are graded on a rating scale of 0 to 3 where a score of 0 represents an efficacy of between 0 and 25%, a score of 1 represents an efficacy of between 26 and 50%, a score of 2 represents an efficacy of between 51 and 75% and a score of 3 represents an efficacy of between 76 and 100%.

The next series has as its system microalgae. The experiment in a line: Ranges of microalgae toxicity (serial dilution of fungicide in growing culture). Particulars: range in which fungicide begins to show growth effects on microalgae. An excerpt: The present disclosure provides for the introduction of fungicides at an effective concentration. Effective concentrations may be determined according to manufacturer's instructions or may be determined empirically. An effective concentration of a fungicide is not toxic to the microalgae being cultured in the liquid system. Methods to determine toxicity are known in the art and include serial dilutions of a test fungicide in a growing liquid culture of microalgae. One of skill in the art would understand that different microalgae may have different ranges of toxicity that may be determined by growth of a microalga in the presence of a serial dilution of a fungicide.
Algae are screened for sensitivity to chemicals by preparing 180 ml of a log phase culture. The log phase culture is transferred into a 96 well microtiter plate at an absorbance at 750 nm (OD750 or A750) of ˜0.2. Twenty microliters of media is provided into the top row as a negative control, the middle six rows receive a 20 microliter dilution, which is a 10 fold dilution of the chemical at each transfer, of the chemical across an appropriate concentration gradient, and the bottom row receives 20 microliter of the solvent used to solubilize the pesticide alone as a control. The total volume per well is 200 μl. Each chemical is tested in triplicate. The growth of the algae is tracked daily by measuring the A750. After 8 days, the growth rate of the algae is measured by fitting the growth curve to a log model and deriving the maximum growth rate (r). The impact of the chemical is calculated by comparing the r of the algae at various dilutions of the pesticide to the control.

A further series deals with Scenedesmus species. The experiment in a line: Algae sensitivity screen, 96 well, growth rate by A750 over 8 days. Format: cell-based. The note with it: log phase culture, 10 fold dilutions, 8 days. The method, then: (§1) The total volume per well is 200 μl. Each chemical is tested in triplicate.
The next series concerns Scenedesmus dimorphus. The series is described as above. The series is classed as cell-based. On the procedure: as §1
In a further series the test system is Desmid species. The description is as above. Format: cell-based. On the procedure: as §1
[2] abbreviates: Tetradesmus dimorphus, read-out: Scenedesmus dimorphus efficacy.
[3] abbreviates: log phase culture, 10 fold dilutions.

Consider `CO/C=C(/C(=O)OC)c1ccccc1Oc1cc(Oc2ccccc2C#N)ncn1` [azoxystrobin], for which, in series [1], the Rating is 0 (a score of 0 represents an efficacy of between 0 and 25%).

On to `O=C(Nc1ccccc1)c1ccccc1I` [benodanil, 2-Iodo-N-phenylbenzamide], for which the “Ranges of Microalgae toxicity” value in the series on microalgae is given as 0.3125-1.25 ppm. For the same molecule, in series [1], the “positive efficacy in a first trial confirmed in a second trial” value (“positive efficacy” below) was “not confirmed”; the Rating is 0 (a score of 0 represents an efficacy of between 0 and 25%). Further, in series [1] (setting [2]), the activity at 5 ppm was 38.7%. The Scenedesmus species toxicity in the series on Scenedesmus species is recorded as 0.3125-1.25 ppm. The Scenedesmus dimorphus toxicity in the series with Scenedesmus dimorphus (setting [3]) is 0.3125-1.25 ppm.

Turning to `CSC(=O)c1cccc2nnsc12` [benzo(1,2,3)thiadiazole-7-carbothioic acid-5-methyl ester], in series [1] (@ 0.8 ppm, percent of growth of treated culture compared to uninfected control growth rate, first trial), the Scenedesmus dimorphus efficacy worked out at 17.5% @ 0.8 ppm.

Regarding `CCC(C)c1cc([N+](=O)[O-])cc([N+](=O)[O-])c1OC(=O)C=C(C)C` (stereo not drawn) [binapacryl], in the series with microalgae, the “Ranges of Microalgae toxicity” value is reported as 0.125-0.5 ppm. Also, the Scenedesmus species toxicity with Scenedesmus species was 0.125-0.5 ppm. Also, in the series on Scenedesmus dimorphus (setting [3]), the Scenedesmus dimorphus toxicity was 0.125-0.5 ppm.

Turning to `O=C(Nc1ccccc1-c1ccc(Cl)cc1)c1cccnc1Cl` [boscalid], the Rating in series [1] was 0 (a score of 0 represents an efficacy of between 0 and 25%).

`O=[N+]([O-])C(Br)(CO)CO` [bronopol, 2-bromo-2-nitropropane-1,3-diol]: the activity at 5 ppm in series [1] (setting [2]) worked out at 14.3%. Also, the Rating in series [1] was 0 (a score of 0 represents an efficacy of between 0 and 25%).

With `O=C1C2CC=CCC2C(=O)N1SC(Cl)(Cl)Cl` (stereo not drawn) [captan], the “Ranges of Microalgae toxicity” value in the series with microalgae is 1.953-125 ppm. In series [1], the Rating is 0 (a score of 0 represents an efficacy of between 0 and 25%). Also, the Scenedesmus species toxicity in the series with Scenedesmus species was 31.25-125 ppm. Further, the Scenedesmus dimorphus toxicity in the series on Scenedesmus dimorphus (setting [3]) was 1.953-7.813 ppm. In the series with Desmid species (setting [3]), the Desmid species toxicity is listed as 31.25-125 ppm.

Take `CCNC(=O)NC(=O)/C(C#N)=N/OC` [cymoxanil]: in series [1], the Rating was 0 (a score of 0 represents an efficacy of between 0 and 25%).

Consider `Cc1cc(C2CC2)nc(Nc2ccccc2)n1` [cyprodinil, 4-Cyclopropyl-6-methyl-N-phenylpyrimidin-2-amine], for which the activity at 2 ppm in series [1] (setting [2]) amounted to 8.1%. In addition, in series [1], the Rating was 0 (a score of 0 represents an efficacy of between 0 and 25%).

Turning to `N#CC(Br)(Br)C(N)=O` [dibromocyanoacetamide, 2,2-dibromo-2-cyanoacetamide], in series [1], the “positive efficacy” value is on record as “not confirmed”; the Rating was 0 (a score of 0 represents an efficacy of between 0 and 25%). The activity at 5 ppm in series [1] (setting [2]) is 35.4%.

For the molecule `N#Cc1sc2c(=O)c3ccccc3c(=O)c=2sc1C#N` [dithianon, 5,10-dioxobenzo[g][1,4]benzodithiine-2,3-dicarbonitrile], the “Ranges of Microalgae toxicity” value with microalgae is 0.625-2.5 ppm. The “Scenedesmus dimorphus Efficacy confirmation” value in series [1] (@ 5 ppm) is 52.2% @ 5 ppm. Moreover, in series [1] (setting [2]), the activity at 5 ppm is 37%. The Rating in series [1] was 2 (a score of 2 represents an efficacy of between 51 and 75%). In addition, in the series with Scenedesmus dimorphus (Scenedesmus dimorphus), the Scenedesmus dimorphus toxicity is 0.625-2.5 ppm.

As for `CC1CN(C2CCCCCCCCCCC2)CC(C)O1` (stereo not drawn) [dodemorph], the “Ranges of Microalgae toxicity” value in the series with microalgae is listed as 0.195-0.781 ppm. The Rating in series [1] was 0 (a score of 0 represents an efficacy of between 0 and 25%). Besides, in the series with Scenedesmus species, the Scenedesmus species toxicity is listed as 0.195-0.781 ppm. Besides, in the series on Scenedesmus dimorphus (setting [3]), the Scenedesmus dimorphus toxicity is reported as 0.195-0.781 ppm.

Take `CCCCCCCCCCCCNC(=N)N` [dodine, dodecylguanidinium acetate]: the “Scenedesmus dimorphus Efficacy confirmation” value in series [1] (@ 2 ppm) is 100% @ 2 ppm. Moreover, in series [1] (setting [2]), the activity at 2 ppm turned out to be 93.9%. The Rating in series [1] was 3 (a score of 3 represents an efficacy of between 76 and 100%).

Turning to `OC(c1ccc(Cl)cc1)(c1cncnc1)c1ccccc1Cl` (stereo not drawn) [fenarimol, (2-chlorophenyl)-(4-chlorophenyl)-pyrimidin-5-ylmethanol], the “Ranges of Microalgae toxicity” value with microalgae was 0.0489-0.195 ppm. Besides, in series [1], the “positive efficacy” value is reported as “not confirmed”; the Rating is 0 (a score of 0 represents an efficacy of between 0 and 25%). Moreover, the activity at 2 ppm in series [1] (setting [2]) came to 31%. In addition, the Scenedesmus species toxicity in the series with Scenedesmus species is reported as 0.0489-0.195 ppm. For the same molecule, the Scenedesmus dimorphus toxicity with Scenedesmus dimorphus (setting [3]) was 0.0489-0.195 ppm.

Take `CC1(C(=O)Nc2ccc(O)c(Cl)c2Cl)CCCCC1` [fenhexamid]: in the series on microalgae, the “Ranges of Microalgae toxicity” value is 15.63-62.5 ppm. Besides, the Rating in series [1] was 0 (a score of 0 represents an efficacy of between 0 and 25%). Further, the Desmid species toxicity in the series on Desmid species (Desmid species) is 15.63-62.5 ppm.

Take `CCO[PH](=O)O` [fosetyl-aluminum (100 mg), fosetyl-aluminum]: the Rating in series [1] was 0 (a score of 0 represents an efficacy of between 0 and 25%).

Regarding `CO/N=C(/C(=O)OC)c1ccccc1COc1ccccc1C` [kresoxim-methyl], the Rating in series [1] is 0 (a score of 0 represents an efficacy of between 0 and 25%).

Consider `COCC(=O)N(c1c(C)cccc1C)C(C)C(=O)OC` (stereo not drawn) [metalaxyl], for which the Rating in series [1] was 0 (a score of 0 represents an efficacy of between 0 and 25%).

For `CCCC1COC(Cn2cncn2)(c2ccc(Cl)cc2Cl)O1` (stereo not drawn) [propiconazole, 1-[[2-(2,4-dichlorophenyl)-4-propyl-1,3-dioxolan-2-yl]methyl]-1,2,4-triazole], in series [1] (@ 0.8 ppm), the “Scenedesmus dimorphus Efficacy confirmation” value stood at 18.6% @ 0.8 ppm. In addition, the activity at 0.32 ppm in series [1] (setting [2]) is 30.6%. Further, the Rating in series [1] is 0 (a score of 0 represents an efficacy of between 0 and 25%).

Turning to `OC(Cc1ccccc1Cl)(Cn1nc[nH]c1=S)C1(Cl)CC1` (stereo not drawn) [prothioconazole], the Rating in series [1] was 0 (a score of 0 represents an efficacy of between 0 and 25%).

Regarding `CC(C)(C)C(O)(CCc1ccc(Cl)cc1)Cn1cncn1` (stereo not drawn) [tebuconazole], the Rating in series [1] is 0 (a score of 0 represents an efficacy of between 0 and 25%).

Consider `COC(=O)NC(=S)Nc1ccccc1NC(=S)NC(=O)OC` [thiophanate-methyl, methyl N-[[2-(methoxycarbonylcarbamothioylamino)phenyl]carbamothioyl]carbamate], for which the activity at 5 ppm in series [1] (setting [2]) turned out to be 9.6%. The Rating in series [1] was 0 (a score of 0 represents an efficacy of between 0 and 25%).

On to `CON=C(C(=O)OC)c1ccccc1CON=C(C)c1cccc(C(F)(F)F)c1` [trifloxystrobin], for which, in series [1], the Rating is 0 (a score of 0 represents an efficacy of between 0 and 25%).

Regarding `O=CNC(N1CCN(C(NC=O)C(Cl)(Cl)Cl)CC1)C(Cl)(Cl)Cl` (stereo not drawn) [triforin], in series [1], the Rating is 0 (a score of 0 represents an efficacy of between 0 and 25%).

For dinocap, the “Ranges of Microalgae toxicity” value with microalgae is reported as 0.0039-0.0625 ppm. Also, the Rating in series [1] was 0 (a score of 0 represents an efficacy of between 0 and 25%). Further, the Scenedesmus species toxicity in the series with Scenedesmus species was 0.0156-0.0625 ppm. Further, the Scenedesmus dimorphus toxicity with Scenedesmus dimorphus (setting [3]) is listed as 0.0039-0.0156 ppm.

Consider mancozeb, for which, in series [1], the Rating was 0 (a score of 0 represents an efficacy of between 0 and 25%).
